Data set [1] concerns the target T1, eucaryotic NAD cyclases of this invention (example: Aplysia californica NAD cyclase) (Aplysia californica, UniProt P29241).
T1 sequence (P29241 25-282): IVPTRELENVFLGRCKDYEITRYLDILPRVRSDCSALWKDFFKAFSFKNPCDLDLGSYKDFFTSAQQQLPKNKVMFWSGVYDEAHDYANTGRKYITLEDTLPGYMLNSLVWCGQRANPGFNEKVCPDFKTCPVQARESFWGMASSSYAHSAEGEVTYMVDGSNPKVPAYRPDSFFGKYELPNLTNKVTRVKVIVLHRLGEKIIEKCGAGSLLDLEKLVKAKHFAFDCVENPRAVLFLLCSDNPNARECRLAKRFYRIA
The data set is described as follows: Resistance of NAD cyclase to inhibitors of eucaryotic NADases. Format: biochemical. Conditions: for inhibition of NAD cyclase by inhibitor: concentration not given.

The test system of data set [2] is rat liver NAD glycohydrolase. To be noted: Moss et al., J. Biol. Chem. 257:5755-5759, 1982; cited from earlier work.
Data set [3] concerns the target T2, Aplysia californica NAD cyclase (ovotestis NADase), purified, wild type (Aplysia californica, UniProt P29241).
T2 construct: from tissue; host or cells: ovotestis (Aplysia)
T2 sequence (P29241 25-282): T1 sequence (P29241 25-282)
Kind of data set: NAD cyclase velocity vs. NAD concentration ([14C]-nicotinamide release). Format: biochemical. The method, then: (§1) Referring to FIG. 4, various concentrations (0.05 to 5.0 mM) of [carbonyl-^14 C]NAD (specific activity=1.6 nCi/nmol) and 5×10^-9 M ovotestis NADase were incubated in 300 mM potassium phosphate buffer (pH 7.0) at 30° C. The amount of NAD cleaved during the incubation period was determined by measuring the amount of [^14 C]-nicotinamide produced. The data was fitted to the equation f=a+b*exp(-c*x) using a nonlinear curve fitting program (SigmaPlot, version 4.0). The estimated Km of the NAD Cyclase is 0.7 mM and the Vmax is approximately 32 nmoles/minute/35 ng enzyme. This corresponds to a turnover rate of about 27,000 moles NAD/minute/mole of NAD Cyclase at 30° C.

Substrate in data set [4]: NC(=O)c1ccc[n+]([C@@H]2O[C@H](COP(=O)([O-])OP(=O)(O)OC[C@H]3O[C@@H](n4cnc5c(N)ncnc54)[C@H](O)[C@@H]3O)[C@@H](O)[C@H]2O)c1
Described as above. The data set is classed as biochemical, Aplysia californica. To be noted: other: 0.05 to 5.0 mM [carbonyl-14C]NAD, 5x10^-9 M enzyme, 300 mM potassium phosphate pH 7.0, 30° C., estimated by nonlinear curve fit. The protocol: as §1

Turning to `O[C@H](CS)[C@H](O)CS` (racemic) [DTT, dithiothreitol], the “inhibition of NAD cyclase by DTT” value in data set [1] (1 mM DTT) was “resistant”. `CC(=O)c1ccc[n+]([C@@H]2O[C@H](COP(=O)([O-])OP(=O)(O)OC[C@H]3O[C@@H](n4cnc5c(N)ncnc54)[C@H](O)[C@@H]3O)[C@@H](O)[C@H]2O)c1` [3-acetylpyridine adenine dinucleotide]: the “inhibition of NAD cyclase by inhibitor” value in data set [1] was “resistant”. `NC(=O)c1ccc[n+]([C@@H]2O[C@H](COP(=O)([O-])OP(=O)(O)OC[C@H]3O[C@@H](n4cnc5c(N)ncnc54)[C@H](O)[C@@H]3O)[C@@H](O)[C@H]2O)c1` [NAD, nicotinamide adenine dinucleotide]: the Km in data set [2] was roughly 18 µM. In addition, the Vmax entry in data set [3] (300 mM potassium phosphate pH 7.0, 30° C.) was “approximately 32 nmoles/minute/35 ng enzyme”. In addition, the turnover rate entry in data set [3] (at 30° C., corresponds to Vmax) is “about 27,000 moles NAD/minute/mole of NAD Cyclase”.

For the molecule `NNC(=O)c1ccncc1` [isonicotinic acid hydrazide], in data set [1], the “inhibition of NAD cyclase by inhibitor” value is reported as “resistant”.

B1: Aplysia californica NAD cyclase (ovotestis NADase), purified, wild type (Aplysia californica) (protein)
chain: T1 sequence (P29241 25-282)
notes: 5×10^-9 M ovotestis NADase were incubated in 300 mM potassium phosphate buffer; from tissue; host or cells: ovotestis (Aplysia)
As for B1, the Michaelis-Menten constant (Km) in data set [4] is 700 µM.

The Km is the concentration of substrate that gives half-maximal velocity.

(Values after US5393667A, “Eucaryotic NAD cyclases” (priority 1993, dated 1995).)
